Laboratory results taken from ChEMBL document CHEMBL6078680, “Improving the Stability and Anti-Infective Activity of Sea Turtle AMPs Using Multiple Structural Modification Strategies” (J Med Chem, 2024).
Active and inactive are the calls of the source. No cut-off for these calls is given here. Non-standard residues stand in square brackets, D forms with d. Residues, ends and D or L forms follow the SMILES beside them. Orn = NCCC[C@H](N)C(=O)O

Columns and labels:
[1] = system: Escherichia coli; assay: Antimicrobial activity against Escherichia coli CMCC44102 assessed as reduction in microbial growth incubated for 18 hrs by broth microdilution method; format: functional
[2] = system: Staphylococcus aureus; assay: Antimicrobial activity against Staphylococcus aureus CMCC 26003 assessed as reduction in microbial growth incubated for 18 hrs by broth microdilution method; format: functional
[3] = system: Clostridium perfringens; assay: Antimicrobial activity against Clostridium perfringens ATCC 13124 assessed as reduction in microbial growth incubated for 18 hrs by broth microdilution method; format: functional
[4] = system: Staphylococcus aureus; assay: Antimicrobial activity against Staphylococcus aureus ATCC 43300 assessed as reduction in microbial growth incubated for 18 hrs by broth microdilution method; format: functional
[5] = system: Enterococcus faecalis; assay: Antimicrobial activity against Enterococcus faecalis ATCC 29217 assessed as reduction in microbial growth incubated for 18 hrs by broth microdilution method; format: functional
[6] = system: Staphylococcus epidermidis; assay: Antimicrobial activity against Staphylococcus epidermidis assessed as reduction in microbial growth incubated for 18 hrs by broth microdilution method; format: functional
[7] = system: Staphylococcus aureus; assay: Antimicrobial activity against Staphylococcus aureus 08032706 assessed as reduction in microbial growth incubated for 18 hrs by broth microdilution method; format: functional
[8] = system: Peritoneal macrophage; assay: Antiinflammatory activity in mouse Peritoneal macrophage cells assessed as inhibition of LPS-induced TNF-alpha production at 20 microg/ml incubated for 6 hrs by ELISA analysis; format: functional, cell-based; details: dose 20.0 µg/ml
[9] = system: Peritoneal macrophage; assay: Antiinflammatory activity in mouse Peritoneal macrophage cells assessed as inhibition of LPS-induced IL-6 production at 20 microg/ml incubated for 6 hrs by ELISA analysis; format: functional, cell-based; details: dose 20.0 µg/ml
[10] = system: Staphylococcus aureus; assay: Antimicrobial activity against Staphylococcus aureus CMCC 26003 at 5 times MIC measured at 180 mins; format: functional, organism-based
[11] = system: Acinetobacter baumannii; assay: Drug resistance, ratio of MIC for Acinetobacter baumannii ATCC1960 after 40 passages to MIC for Acinetobacter baumannii ATCC1960 during first exposure; format: functional
[12] = system: Escherichia coli; assay: Drug resistance, ratio of MIC for Escherichia coli ATCC 25922 after 40 passages to MIC for Escherichia coli ATCC 25922 during first exposure; format: functional
[13] = system: Staphylococcus aureus; assay: Antibiofilm activity against Staphylococcus aureus CMCC 26003 assessed as inhibition of biofilm formation incubated for 48 hrs by crystal violet staining based analysis; format: functional, organism-based
[14] = system: Acinetobacter baumannii; assay: Antibiofilm activity against Acinetobacter baumannii ATCC 19606 assessed as inhibition of biofilm formation incubated for 48 hrs by crystal violet staining based analysis; format: functional, organism-based
[15] = system: Staphylococcus aureus; assay: Antibiofilm activity against Staphylococcus aureus CMCC 26003 assessed as biofilm eradication incubated for 24 hrs by crystal violet staining based analysis; format: functional, organism-based
[16] = system: Acinetobacter baumannii; assay: Antibiofilm activity against Acinetobacter baumannii ATCC 19606 assessed as biofilm eradication incubated for 24 hrs by crystal violet staining based analysis; format: functional, organism-based
[17] = system: Acinetobacter baumannii; assay: Antibiofilm activity against Acinetobacter baumannii ATCC 19606 assessed as inhibition of biofilm formation at 0.5 times MIC incubated for 48 hrs by crystal violet staining based analysis; format: functional
[18] = system: Staphylococcus aureus; assay: Antibiofilm activity against Staphylococcus aureus CMCC 26003 assessed as reduction in biofilm formation at 0.5 times MIC incubated for 24 hrs by crystal violet staining based analysis; format: functional; parameters: scale not given: the % may be the effect or the level left
[19] = system: Staphylococcus aureus; assay: Antibiofilm activity against Staphylococcus aureus CMCC 26003 assessed as biofilm eradication at 8 times MIC incubated for 24 hrs by crystal violet staining based analysis; format: functional
[20] = system: Acinetobacter baumannii; assay: Antipersister-activity against Acinetobacter baumannii ATCC 19606 assessed as elimination of persister cells at 50 times MIC preincubated adherent persistent cells with colistin incubation for 24 hrs; format: functional
[21] = system: Staphylococcus aureus; assay: Antipersister-activity against Staphylococcus aureus CMCC 26003 assessed as elimination of persister cells at 50 times MIC preincubated adherent persistent cells with colistin incubation for 24 hrs; format: functional
[22] = system: Cell membrane; assay: Disruption of cell membrane integrity in Escherichia coli ATCC 25922 assessed as cell membrane damage at 5 times MIC measured after 30 mins by scanning electron microscopic analysis; format: subcellular
[23] = system: Cell membrane; assay: Disruption of cell membrane integrity in Staphylococcus aureus CMCC 26003 assessed as cell membrane damage at 5 times MIC measured after 30 mins by scanning electron microscopic analysis; format: subcellular
[24] = system: Escherichia coli; assay: Antibacterial activity against Escherichia coli ATCC 25922 assessed as increase in intracellular ROS production at 1 times MIC by DCFH-DA staining based assay; format: functional, organism-based
[25] = system: Escherichia coli; assay: Antibacterial activity against Escherichia coli ATCC 25922 assessed as increase in intracellular ROS production at 2 to 5 times MIC by DCFH-DA staining based assay; format: functional, organism-based
[26] = system: Staphylococcus aureus; assay: Antibacterial activity against Staphylococcus aureus CMCC 26003 assessed as increase in intracellular ROS production incubated for 1 hr by DCFH-DA staining based assay; format: functional, organism-based
[27] = system: Staphylococcus aureus; assay: Bactericidal activity against Staphylococcus aureus CMCC 26003 assessed as bacterial eradication incubated at 0.5 hrs in presence of thiourea; format: functional, organism-based
[28] = system: Escherichia coli; assay: Antibacterial activity against Escherichia coli ATCC 25922 at 1 times MIC in presence of exogenous DNA; format: functional, organism-based
[29] = Acute toxicity in BALB/c mouse assessed as mortality at 10 mg/kg, iv measured for 24 hrs; format: organism-based; details: in vivo, read-out: Activity
[30] = Acute toxicity in BALB/c mouse assessed as mortality at 20 mg/kg, iv measured for 24 hrs; format: organism-based; details: in vivo, read-out: Activity
[31] = Acute toxicity in BALB/c mouse assessed as mortality at 50 mg/kg, iv measured for 24 hrs; format: organism-based; details: in vivo, read-out: Activity
[32] = Acute toxicity in BALB/c mouse assessed as effect on BUN level at 10 mg/kg, iv measured for 24 hrs; format: organism-based; details: in vivo
[33] = Acute toxicity in BALB/c mouse assessed as effect on ALT level at 10 mg/kg, iv measured for 24 hrs; format: organism-based; details: in vivo
[34] = system: Acinetobacter baumannii; assay: In vivo antibacterial activity against Acinetobacter baumannii ATCC19606 infected in BALB/c mouse assessed as survival at 15 mg/kg, ip administered for 12 hrs and measured after 3 hrs; format: functional; details: time 15 hrs
[35] = system: Acinetobacter baumannii; assay: In vivo antibacterial activity against Acinetobacter baumannii ATCC19606 infected in BALB/c mouse assessed as reduction in bacterial load at 15 mg/kg, ip; format: functional, organism-based; details: time 3.0 hrs
[36] = system: Acinetobacter baumannii; assay: In vivo antibacterial activity against Acinetobacter baumannii ATCC19606 infected in BALB/c mouse assessed as reduction in bacterial load in liver at 15 mg/kg, ip measured after 3 hrs; format: functional, organism-based
[37] = system: Acinetobacter baumannii; assay: In vivo antibacterial activity against Acinetobacter baumannii ATCC19606 infected in BALB/c mouse assessed as reduction in bacterial load in lung at 15 mg/kg, ip measured after 3 hrs; format: functional, organism-based
[38] = system: Acinetobacter baumannii; assay: In vivo antibacterial activity against Acinetobacter baumannii ATCC19606 infected in BALB/c mouse assessed as reduction in bacterial load in kidney at 15 mg/kg, ip measured after 3 hrs; format: functional, organism-based
[39] = system: Acinetobacter baumannii; assay: In vivo antibacterial activity against Acinetobacter baumannii ATCC19606 infected in BALB/c mouse assessed as reduction in bacterial load in lung at 15 mg/kg, ip measured after 12 hrs; format: functional, organism-based
[40] = system: Acinetobacter baumannii; assay: In vivo antibacterial activity against Acinetobacter baumannii ATCC19606 infected in BALB/c mouse assessed as reduction in bacterial load in kidney at 15 mg/kg, ip measured after 12 hrs; format: functional, organism-based

Question: With CC[C@H](C)[C@H](NC(=O)[C@H](CCCN)NC(=O)[C@H](CO)NC(=O)[C@H](Cc1c[nH]cn1)NC(=O)[C@H](CCCN)NC(=O)[C@H](CC(C)C)NC(=O)[C@@H](NC(=O)[C@H](CCCN)NC(=O)CNC(=O)[C@H](CC(C)C)NC(=O)[C@H](CCC(N)=O)NC(=O)[C@H](CCCN)NC(=O)[C@H](CCCN)NC(=O)[C@@H](NC(=O)[C@H](CCCN)NC(=O)[C@H](CCCN)NC(=O)[C@@H](N)Cc1ccccc1)C(C)C)C(C)C)C(=O)N[C@H](C(=O)N[C@H](C(=O)NCC(=O)NCC(=O)N[C@@H](CCCN)C(=O)N[C@@H](CCSC)C(=O)N[C@@H](CCCN)C(=O)N[C@@H](Cc1ccccc1)C(=O)O)C(C)C)[C@@H](C)O (H-F[Orn][Orn]V[Orn][Orn]QLG[Orn]VL[Orn]HS[Orn]ITVGG[Orn]M[Orn]F-OH) as the molecule, how does the MIC [1] read?
Answer: 18.8 µg/mL

Question: What about the MIC [2] of the same molecule?
Answer: 75 µg/mL

Question: What about the MIC [3] of the same molecule?
Answer: 18.8 µg/mL

Question: What about the MIC [4] of the same molecule?
Answer: > 100 µg/mL

Question: And the MIC [5]?
Answer: 18.8 µg/mL

Question: And the MIC [6]?
Answer: 18.8 µg/mL

Question: What about the MIC [7] of the same molecule?
Answer: 37.5 µg/mL

Question: What about the Activity [8] of the same molecule?
Answer: Active

Question: What about the Activity [9] of the same molecule?
Answer: Active

Question: What about the Activity [10] of the same molecule?
Answer: inactive

Question: What about the Ratio [11] of the same molecule?
Answer: 1

Question: And the Ratio [12]?
Answer: 1

Question: What about the Activity [13] of the same molecule?
Answer: Active

Question: What about the Activity [14] of the same molecule?
Answer: Active

Question: What about the Activity [15] of the same molecule?
Answer: Active

Question: And the Activity [16]?
Answer: Active

Question: What about the “inhibition (INH)” value [17] of the same molecule?
Answer: 10%

Question: And the Activity [18]?
Answer: 20%

Question: What about the Activity [19] of the same molecule?
Answer: 50%

Question: And the Activity [20]?
Answer: 60%

Question: And the Activity [21]?
Answer: 50%

Question: And the Activity [22]?
Answer: Active

Question: And the Activity [23]?
Answer: Active

Question: What about the Activity [24] of the same molecule?
Answer: Active

Question: And the Activity [25]?
Answer: Active

Question: And the Activity [26]?
Answer: Dose-dependent-effect

Question: And the Activity [27]?
Answer: Active

Question: What about the Activity [28] of the same molecule?
Answer: Active

Question: What about the mortality at 24 h [29] of the same molecule?
Answer: 0%

Question: And the mortality at 24 h [30]?
Answer: 0%

Question: And the mortality at 24 h [31]?
Answer: 0%

Question: What about the Activity [32] of the same molecule?
Answer: Non-toxic

Question: What about the Activity [33] of the same molecule?
Answer: Non-toxic

Question: And the Activity [34]?
Answer: >60%

Question: And the Activity [35]?
Answer: Time-dependent-effect

Question: And the Activity [36]?
Answer: Active

Question: And the Activity [37]?
Answer: Active

Question: What about the Activity [38] of the same molecule?
Answer: Active

Question: And the Activity [39]?
Answer: Active

Question: What about the Activity [40] of the same molecule?
Answer: Active
